# Test results as given in US11214594B2, “Antimicrobial peptide having synergistic antibacterial effect with antibiotics on multidrug resistant bacteria, and use thereof” (priority 2016, dated 2022).
# Where a SMILES comes first, the peptide text is derived from it. [ ]: non-standard residue; d: D form.
# Tests used:
# E. coli [1] = assay: microbe, parasite or virus in culture; type: cell-based, Escherichia coli; conditions: 16 h
# Outline: (§1)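 MIC read-out = lowest peptide level with no bacterial proliferation. Strains diluted in MH medium to 2×10^6 CFU; peptide twofold serial dilutions in MH added 1:1 in microtiter wells.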
# MDREC 1229 [2] = assay: microbe, parasite or virus in culture; type: cell-based, Escherichia coli
# Outline: as §1
# MDREC 1238 = type: cell-based, Escherichia coli
# Outline: as §1
# P. aeruginosa = assay: microbe, parasite or virus in culture; type: cell-based, Pseudomonas aeruginosa
# Outline: as §1
# MDRAB 12036 = type: cell-based, Acinetobacter baumannii
# Outline: as §1
# S. typhimurium = assay: microbe, parasite or virus in culture; type: cell-based, Salmonella typhimurium
# Outline: as §1
# MDRST 8007 = assay: Minimal inhibitory concentration (MIC), single agent; type: cell-based, Salmonella typhimurium; conditions: agent alone
# Outline: as §1
# MDRST 8009 = type: cell-based, Salmonella typhimurium; conditions: agent alone
# Outline: as §1
# S. epidermidis = assay: microbe, parasite or virus in culture; type: cell-based, Staphylococcus epidermidis
# Outline: as §1
# S. aureus = assay: microbe, parasite or virus in culture; type: cell-based, Staphylococcus aureus
# Outline: as §1
# MRSA 3114 = type: cell-based, Staphylococcus aureus; conditions: 3114
# Outline: as §1
# MRSA 3126 = type: cell-based, Staphylococcus aureus; conditions: 3126
# Outline: as §1
# E. coli [3] = assay: MIC of antibiotic during combined treatment with antimicrobial peptide; type: cell-based, Escherichia coli; conditions: for Antibiotic MIC, Erythromycin / Antibiotic MIC, Linezolid / Antibiotic MIC, Vancomycin: E. coli
# Outline: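 First, antibiotic solution is diluted with MH medium; next, the dilution is dispensed into wells containing peptide; finally, the orientation is swapped and MIC of each mixture determined.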
# MDREC 1229 [4] = assay: as above; type: cell-based, Escherichia coli
# Method: Specifically, the strains described in [Table 2] were prepared and diluted with an MH medium such that the number of bacteria was 2×10^6 colony-forming units (CFUs) per 1 ml, 100 μl of the diluted strains was each aliquoted into a 96-well microtiter plate, and then 50 μl of a peptide solution diluted with the MH medium from the MIC value (solution diluted stepwise at 2: 1) was added to each well. Thereafter, the MIC value of each mixed solution was determined by diluting the antibiotic solution with the MH medium, adding 50 μl of the diluted solution to each well, and performing an experiment even under a reversed condition.
# [5] = peptide treatment concentration 1 μg/ml
# [6] = peptide treatment concentration 2 μg/ml
structure (smiles),measurement,setting,value
"CC[C@H](C)[C@H](NC(=O)[C@H](CCCCN)NC(=O)[C@H](Cc1c[nH]c2ccccc12)NC(=O)[C@@H](N)CCCNC(=N)N)C(=O)N[C@@H](Cc1ccccc1)C(=O)N[C@@H](CCCCN)C(=O)N[C@@H](CCCCN)C(=O)N[C@H](C(=O)N[C@H](CCCCN)C(=O)N[C@@H](CCCCN)C(=O)N[C@@H](CC(C)C)C(=O)N[C@@H](CC(C)C)C(=O)N[C@@H](Cc1c[nH]cn1)C(=O)N[C@@H](CCC(=O)O)C(=O)N[C@@H](Cc1ccccc1)C(=O)N[C@@H](CCCCN)C(=O)N[C@@H](CCCCN)C(=O)N[C@@H](Cc1ccccc1)C(N)=O)[C@@H](C)CC [PapMA-19, RWK IFK KIk KLL HEF KKF-NH2] (H-RWKIFKKI[dK]KLLHEFKKF-NH2; N-terminus assumed)",Minimal inhibitory concentration MIC,E. coli [1],32 µg/mL
same,Minimal inhibitory concentration MIC,MDREC 1229 [2],32 µg/mL
same,"Peptide MIC, peptide alone",MDREC 1229 [2],32 µg/mL
same,Minimal inhibitory concentration MIC,MDREC 1238,32 µg/mL
same,Minimal inhibitory concentration MIC,P. aeruginosa,64 µg/mL
same,Minimal inhibitory concentration MIC,MDRAB 12036,32 µg/mL
same,Minimal inhibitory concentration MIC,S. typhimurium,32 µg/mL
same,Minimal inhibitory concentration MIC,MDRST 8007,64 µg/mL
same,Minimal inhibitory concentration MIC,MDRST 8009,64 µg/mL
same,Minimal inhibitory concentration MIC,S. epidermidis,>128 µg/mL
same,Minimal inhibitory concentration MIC,S. aureus,>128 µg/mL
same,Minimal inhibitory concentration MIC,MRSA 3114,>128 µg/mL
same,Minimal inhibitory concentration MIC,MRSA 3126,>128 µg/mL
same,Synergistic effect of antibacterial activity with existing antibiotics compared with PapMA-1,E. coli [3]; E. coli and MDREC1229,higher level than the PapMA-1 peptide
same,"Antibiotic MIC, Erythromycin",E. coli [3]; erythromycin combined with peptide at 1 μg/ml,64 µg/mL
same,"Antibiotic MIC, Erythromycin",E. coli [3]; erythromycin combined with peptide at 2 μg/ml,32 µg/mL
same,"Antibiotic MIC, Erythromycin",E. coli [3]; erythromycin combined with peptide at 4 μg/ml,8 µg/mL
same,"Antibiotic MIC, Erythromycin",E. coli [3]; erythromycin combined with peptide at 6 μg/ml,2 µg/mL
same,"Antibiotic MIC, Erythromycin",E. coli [3]; erythromycin combined with peptide at 8 μg/ml,1 µg/mL
same,"Antibiotic MIC, Erythromycin",E. coli [3]; erythromycin combined with peptide at 16 μg/ml,0.25 µg/mL
same,"Antibiotic MIC, Erythromycin",E. coli [3]; erythromycin combined with peptide at 32 μg/ml,0 µg/mL
same,"Antibiotic MIC, Erythromycin",E. coli [3]; erythromycin combined with peptide at 64 μg/ml,0 µg/mL
same,"Antibiotic MIC, Linezolid",E. coli [3]; linezolid combined with peptide at 1 μg/ml,>128 µg/mL
same,"Antibiotic MIC, Linezolid",E. coli [3]; linezolid combined with peptide at 2 μg/ml,64 µg/mL
same,"Antibiotic MIC, Linezolid",E. coli [3]; linezolid combined with peptide at 4 μg/ml,32 µg/mL
same,"Antibiotic MIC, Linezolid",E. coli [3]; linezolid combined with peptide at 6 μg/ml,8 µg/mL
same,"Antibiotic MIC, Linezolid",E. coli [3]; linezolid combined with peptide at 8 μg/ml,8 µg/mL
same,"Antibiotic MIC, Linezolid",E. coli [3]; linezolid combined with peptide at 16 μg/ml,4 µg/mL
same,"Antibiotic MIC, Linezolid",E. coli [3]; linezolid combined with peptide at 32 μg/ml,0 µg/mL
same,"Antibiotic MIC, Linezolid",E. coli [3]; linezolid combined with peptide at 64 μg/ml,0 µg/mL
same,"Antibiotic MIC, Vancomycin",E. coli [3]; vancomycin combined with peptide at 1 μg/ml,>128 µg/mL
same,"Antibiotic MIC, Vancomycin",E. coli [3]; vancomycin combined with peptide at 2 μg/ml,128 µg/mL
same,"Antibiotic MIC, Vancomycin",E. coli [3]; vancomycin combined with peptide at 4 μg/ml,64 µg/mL
same,"Antibiotic MIC, Vancomycin",E. coli [3]; vancomycin combined with peptide at 6 μg/ml,8 µg/mL
same,"Antibiotic MIC, Vancomycin",E. coli [3]; vancomycin combined with peptide at 8 μg/ml,8 µg/mL
same,"Antibiotic MIC, Vancomycin",E. coli [3]; vancomycin combined with peptide at 16 μg/ml,4 µg/mL
same,"Antibiotic MIC, Vancomycin",E. coli [3]; vancomycin combined with peptide at 32 μg/ml,0 µg/mL
same,"Antibiotic MIC, Vancomycin",E. coli [3]; vancomycin combined with peptide at 64 μg/ml,0 µg/mL
same,"Antibiotic MIC, Erythromycin",MDREC 1229 [4]; [5],128 µg/mL
same,"Antibiotic MIC, Linezolid",MDREC 1229 [4]; [5],>128 µg/mL
same,"Antibiotic MIC, Vancomycin",MDREC 1229 [4]; [5],>128 µg/mL
same,"Antibiotic MIC, Erythromycin",MDREC 1229 [4]; [6],32 µg/mL
same,"Antibiotic MIC, Linezolid",MDREC 1229 [4]; [6],128 µg/mL
